Laboratory results published in US9301961B2, “Autoimmune and inflammatory disorder therapy” (Katholieke Universiteit Leuven, K.U. Leuven R&D, priority 2011, dated 2016).

Target: T1, YSK4 (Homo sapiens, UniProt Q56UN5)
T1 construct: made in house; host or cells: E. coli BL21-derived host (T7 phage) or HEK-293
T1 sequence (Q56UN5 1-1328): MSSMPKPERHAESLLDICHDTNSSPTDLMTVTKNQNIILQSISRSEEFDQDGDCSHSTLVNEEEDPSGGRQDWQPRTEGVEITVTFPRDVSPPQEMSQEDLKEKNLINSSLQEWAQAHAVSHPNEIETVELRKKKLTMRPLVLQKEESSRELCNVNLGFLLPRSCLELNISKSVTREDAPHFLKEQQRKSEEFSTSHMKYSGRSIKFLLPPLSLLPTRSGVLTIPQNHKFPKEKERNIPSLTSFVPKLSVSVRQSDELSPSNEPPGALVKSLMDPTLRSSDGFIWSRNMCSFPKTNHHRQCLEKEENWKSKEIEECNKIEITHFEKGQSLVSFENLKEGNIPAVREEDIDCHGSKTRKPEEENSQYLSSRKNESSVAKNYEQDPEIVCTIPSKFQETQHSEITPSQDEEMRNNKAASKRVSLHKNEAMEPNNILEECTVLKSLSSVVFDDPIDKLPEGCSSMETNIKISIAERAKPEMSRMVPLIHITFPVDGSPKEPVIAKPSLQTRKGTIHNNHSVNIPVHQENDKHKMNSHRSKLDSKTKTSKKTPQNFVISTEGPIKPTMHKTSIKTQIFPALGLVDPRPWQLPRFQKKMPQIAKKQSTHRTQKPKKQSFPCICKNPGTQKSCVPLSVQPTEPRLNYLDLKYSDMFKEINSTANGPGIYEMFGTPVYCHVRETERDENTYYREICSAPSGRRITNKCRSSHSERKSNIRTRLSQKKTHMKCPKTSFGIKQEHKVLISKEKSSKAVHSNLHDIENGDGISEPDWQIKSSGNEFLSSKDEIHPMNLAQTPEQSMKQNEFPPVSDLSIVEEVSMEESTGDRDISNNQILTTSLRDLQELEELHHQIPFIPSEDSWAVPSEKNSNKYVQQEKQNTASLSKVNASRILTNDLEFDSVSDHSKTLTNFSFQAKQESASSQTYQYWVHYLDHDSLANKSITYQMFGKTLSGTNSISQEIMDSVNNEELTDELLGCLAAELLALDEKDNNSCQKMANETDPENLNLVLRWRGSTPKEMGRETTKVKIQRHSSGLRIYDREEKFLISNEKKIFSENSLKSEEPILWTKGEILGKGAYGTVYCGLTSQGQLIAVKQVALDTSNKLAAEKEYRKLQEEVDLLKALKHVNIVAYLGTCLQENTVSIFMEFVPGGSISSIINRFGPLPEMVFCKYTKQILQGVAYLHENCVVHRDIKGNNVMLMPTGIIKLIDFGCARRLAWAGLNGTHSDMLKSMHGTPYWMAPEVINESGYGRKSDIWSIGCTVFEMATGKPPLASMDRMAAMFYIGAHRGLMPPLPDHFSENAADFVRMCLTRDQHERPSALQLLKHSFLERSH
Assay: Kinase-tagged phage competition binding assay (qPCR), 382-kinase library

## Nc1nc(N2CCN(C(=O)COc3ccc(Cl)cc3)CC2)c2nc(-c3cccnc3)sc2n1 [formula (1), 5-amino-7-[4-(4-chlorophenoxyacetyl)piperazin-1-yl]-2-(pyridin-3-yl)thiazolo[5,4-d]pyrimidine]
10 μM compound, read-out: % Inhibition of substrate binding
  inhibition at 10 µM: 79%
Stated for the 8 kinases of Table 1
  IC50: < 10 µM
